Test results from doi:10.1101/2020.04.13.040287v1 (biorxiv, 2020).
Where two headings read alike, the source gives them in different places.

Assays:
in vitro [1] = settings: human
in vitro [2] = settings: rat, plasma
in vitro [3] = settings: dog, intestinal s9
in vitro [4] = settings: dog
in vitro [5] = settings: human, intestinal s9
DEN2 [6] = assay: microbe, parasite or virus in culture; settings: Dengue virus, THP-1, read-out: THP-1 DEN2 assay (EC50)
DEN2 [7] = assay: microbe, parasite or virus in culture; settings: Dengue virus, K562, read-out: K562 DEN2 assay (EC50)
DEN2 [8] = assay: microbe, parasite or virus in culture; settings: Dengue virus, HEK-293T, read-out: 293T DEN2 assay (EC50)
in vitro [9] = settings: human, plasma
in vitro [10] = settings: dog, plasma
[11] = liver s9, Liver S9 T1/2 (min) human
[12] = liver s9, Liver S9 T1/2 (min) dog

half-life (in vitro [1]; [11]) [min]	half-life (in vitro [2]; Plasma T1/2 (min) rat) [min]	half-life (in vitro [4]; [12]) [min]	SMILES	other results
> 120			CCOc1nc(N)nc2c1ncn2[C@@H]1O[C@@H]2COP(=O)(OC(C)C)O[C@H]2[C@@]1(C)F (some centres unmarked) [compound 4, PSI-352938]	
			COc1nc(N)nc2c1ncn2[C@@H]1O[C@H](COP(=O)(N[C@@H](C)C(=O)OC(C)C)Oc2ccccc2)[C@@H](O)[C@@]1(C)F (some centres unmarked) [compound 5, PSI-353661]	half-life (in vitro [2]): < 5 min; half-life (in vitro [3]): 72 min; half-life (in vitro [4]; liver s9): 51 min; half-life (in vitro [1]; liver s9): 18 min; half-life (in vitro [5]): > 120 min
	< 5	56	CCOc1nc(N)nc2c1ncn2C1OC2COP(=O)(NC(C)C(=O)OC(C)C)OC2C1(C)F (centres unmarked) [compound 12, 12]	
58	< 5	91	CCOc1nc(N)nc2c1ncn2C1OC2COP(=O)(NCC(=O)OC(C)C)OC2C1(C)F (centres unmarked) [compound 16, 16]	
			CCOC(=O)C(C)NP1(=O)OCC2OC(n3cnc4c(OCC)nc(N)nc43)C(C)(F)C2O1 (centres unmarked) [compound 17, 17]	EC50 (DEN2 [6]): 460 ± 200 nM; EC50 (DEN2 [7]): 2790 ± 220 nM; EC50 (DEN2 [8]): 3.4 µM
	< 5		COC(=O)C(C)NP1(=O)OCC2OC(n3cnc4c(OC(C)C)nc(N)nc43)C(C)(F)C2O1 (centres unmarked) [compound 19, 19]	half-life (in vitro [9]): 113 min; half-life (in vitro [10]): > 120 min
82	66	61	CCOC(=O)C(NP1(=O)OCC2OC(n3cnc4c(OCC)nc(N)nc43)C(C)(F)C2O1)C(C)C (centres unmarked) [compound 20, 20]	
